Measured values as given in patent US20210059977A1, “COMBINATION THERAPIES FOR THE TREATMENT OF AMYOTROPHIC LATERAL SCLEROSIS AND RELATED DISORDERS” (The General Hospital Corporation, priority 2018, published 2021).

Columns and labels:
[1] = target: G-protein-coupled receptor 35 (GPR35) (Homo sapiens, UniProt Q9HC97); conditions: cited from earlier work
SOD1 gene = conditions: in vitro studies; cited from earlier work
SOD1^G93A mouse model [2] = test: Gait analysis (stride length and width); assay type: in vivo, mice; conditions: 6.3 mg/kg i.p.
Method: Gait Analysis Manual gait analysis was performed using a limb painting procedure similar to previous studies. Briefly, mice were first trained to traverse a horizontal corridor leading directly into their home cage by gentle nudges in the appropriate direction. On test days the bottoms of their hindlimbs were painted, by brushing with non-toxic food dye (Fisher Scientific), and the mice were allowed to walk the path to their home cage on a piece of paper. Three trials were performed at each experimental time point (P70, P90, P110, P130, P150). Stride length and width was determined by measuring the distance between the same points, on the ball mount region of the footprint, in two consecutive footprints and calculated from 2-3 hindpaw strides. Mean data from 4-6 strides across three trials was calculated.
(§1) 149 male and female age- and litter-matched transgenic (Tg) SOD1^G93A and wild-type (Wt) SOD1^G93A mice were used with the following breakdown: Females (19 WtSOD1-Vehicle, 17 WtSOD1-Cromolyn, 19 TgSOD1-Vehicle, and 17 TgSOD1-Cromolyn) and Males (18 WtSOD1-Vehicle, 21 WtSOD1-Cromolyn, 21 TgSOD1-Vehicle, 17 TgSOD1-Cromolyn).

GPR35 [3] = test: GPR35 immunofluorescence, lumbar spinal cord; assay type: in vivo, mice; conditions: TgSOD1-Cromolyn vs TgSOD1-Vehicle
Method: Frozen mouse lumbar spinal cord was sectioned at […] and stained using previously described methods. Tissue sections were fixed with 4% paraformaldehyde and blocked in a mixture of phosphate-buffered saline (PBS), 5% BSA, and normal goat serum. Co-staining was done using antibodies specific for GPR35 (Novus Biologicals, Littleton, Colo.; NBP2-24640) and NeuN (Millipore Sigma, Temecula, Calif.; MAB377 overnight at 4° C. Following three washes with PBS, sections were incubated with Cy3-conjugated goat anti-mouse and FITC-conjugated goat anti-rabbit antibodies (Jackson ImmunoResearch, West Grove, Pa.). Ten 20× fields were imaged from each section and analyzed using open source software from the National Institutes of Health (ImageJ).
as §1

SOD1^G93A mouse model [4] = test: Rotarod; assay type: in vivo, mice; conditions: TgSOD1-Cromolyn vs TgSOD1-Vehicle; 6.3 mg/kg i.p.
Method: Mice were placed on a fixed speed (16 rpm) rotating rod (3.0 cm) (Rotamex, Columbus Instruments) as previously described. Mice were trained to remain on the rotarod for 180 seconds once at P40. For each experimental time point (P70, P90, P110, P130, P150), the time mice spent on the rotating rod was calculated up to a maximum of 180 seconds. Three trials were performed for each time point and the greatest value for each session was used for analysis.
as §1

beta-amyloid peptides = beta-amyloid peptides (Homo sapiens, UniProt P05067); conditions: cited from earlier work
beta-amyloid peptides, sequence (P05067 672-713 limits assumed): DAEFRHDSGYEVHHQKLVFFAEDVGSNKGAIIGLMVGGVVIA

SOD1^G93A mouse model [5] = test: Age at paresis onset; assay type: in vivo, mice
Method: Beginning at P50, weight and neurological score (using the ALS TDI criteria) (Hatzipetros, T., et al. (2015). “A Quick Phenotypic Neurological Scoring System for Evaluating Disease Progression in the SOD1-G93A Mouse Model of ALS.” J Vis Exp(104); Leitner M., et. al. (2009). “Working with ALS mice: Guidelines for preclinical testing & colony management.” The Jackson Laboratory) were recorded for each mouse every 5 days until death or euthanasia. ALS TDI criteria are as follows: • Score of 0: Full extension of hind legs away from lateral midline when mouse is suspended by its tail, and mouse can hold this for two seconds, suspended two to three times. • Score of 1: Collapse or partial collapse of leg extension towards lateral midline (weakness) or trembling of hind legs during tail suspension. • Score of 2: Toes curl under at least twice during walking of 12 inches, or any part of foot is dragging along cage bottom/table. • Score of 3: Rigid paralysis or minimal joint movement, foot not being used for generating forward motion. • Score of 4: Mouse cannot right itself within 15 seconds after being placed on either side. *Mice were euthanized upon obtaining a score of 4.
as §1

alpha-synuclein peptides = alpha-synuclein peptides (Homo sapiens, UniProt P37840); conditions: cited from earlier work
GPR35 [6] = test: GPR35 western blots, spinal cord; assay type: in vivo, mice; conditions: non-lumbar region of the spinal cord; TgSOD1-Cromolyn vs TgSOD1-Vehicle; p=0.167
Method: Western blots were performed as previously described (Mueller et al., 2018). Briefly, […] of mouse spinal cord protein was re-suspended in sample buffer, boiled at 95° C. for 5 minutes, and fractioned on 10-20% Tricine gels (Life Technologies), and the membrane was then blocked with 5% milk in tris-buffered saline with Tween 20 (TBST) before immunodetection with antibodies specific for the following: GPR35 (Novus Biologicals, Littleton, Colo.; NBP2-24640), and beta-actin (Cell Signaling Technology, Danvers, Mass.; 4967S). Primary antibody incubation overnight was followed by 4 washes (15 min, RT) in TBST before incubation with the secondary antibody for 1 h (HRP-conjugated goat anti-rabbit IgG Jackson ImmunoResearch Laboratories, West Grove, Pa.; and HRP-conjugated goat anti-mouse Bio-Rad Laboratories Hercules, Calif.). After 4 washes in TBST (15 min, RT) proteins were visualized using the ECL detection system (NEN, Boston, Mass.). GPR35 integrated density values (IDV) were normalized to beta-actin.
as §1

G-protein-coupled receptor 35 (GPR35), sequence (Q9HC97 whole entry, species assumed): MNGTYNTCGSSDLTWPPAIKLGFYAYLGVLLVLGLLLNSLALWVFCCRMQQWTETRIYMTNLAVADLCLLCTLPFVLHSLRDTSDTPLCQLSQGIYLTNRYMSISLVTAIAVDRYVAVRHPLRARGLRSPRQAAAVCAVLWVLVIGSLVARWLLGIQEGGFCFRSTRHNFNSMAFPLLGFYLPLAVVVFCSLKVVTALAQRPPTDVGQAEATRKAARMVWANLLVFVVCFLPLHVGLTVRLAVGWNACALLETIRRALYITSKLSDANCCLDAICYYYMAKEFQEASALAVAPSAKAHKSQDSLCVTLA

O=C(O)c1cc(=O)c2c(OCC(O)COc3cccc4oc(C(=O)O)cc(=O)c34)cccc2o1 [cromolyn, cromolyn sodium]
agonism of GPR35 [1]: potent agonist | effect on SOD1 gene (SOD1 gene): inhibits the SOD1 gene | stride length (SOD1^G93A mouse model [2]; TgSOD1 mice): no effect on stride length | stride width (SOD1^G93A mouse model [2]; all groups, two-way ANOVA): no effect of treatment | neuronal GPR35 levels (co-localized with NeuN) (GPR35 [3]; p=0.0411): significant increase in neuronal GPR35 levels | GPR35 levels (immunofluorescence intensity) (GPR35 [3]; p=0.0449): significant increase in GPR35 levels | rotarod performance (SOD1^G93A mouse model [4]): no difference in rotarod performance | binding to beta-amyloid peptides and polymerization (beta-amyloid peptides): inhibiting their polymerization to higher order aggregates | median age of onset (age at paresis onset) (SOD1^G93A mouse model [5]; TgSOD1-Cromolyn group, all mice, 6.3 mg/kg i.p., vehicle group 99 days): 107 days | onset of motor symptoms as measured by age at paresis onset (SOD1^G93A mouse model [5]; all TgSOD1 mice, Mantel-Cox test, p<0.0001): significant effect of cromolyn treatment on the onset of motor symptoms | onset of motor symptoms (SOD1^G93A mouse model [5]; female mice, Mantel-Cox test, p=0.0009): significant delay in the onset of motor symptoms | onset of motor symptoms (SOD1^G93A mouse model [5]; male mice, Mantel-Cox test, p=0.0193): significant delay in the onset of motor symptoms | binding to alpha-synuclein peptides and polymerization (alpha-synuclein peptides): inhibiting their polymerization to higher order aggregates | GPR35 levels (western blot, normalized to beta-actin) (GPR35 [6]): trend towards an increase
